The source of these data is patent publication US20040106685A1, “Method of preventing and/or treating asthma using PBPB” (COUNCIL OF SCIENTIFIC & INDUSTRIAL RESEARCH, priority 2002, published 2004).

Molecules are shown by their SMILES.

Holding throughout (assay type): in vivo, BALB/c male mice
The test system of one assay is eosinophils in BAL fluid. Put plainly: Eosinophils in BAL fluid by flow cytometry. The procedure: (§1) In another embodiment of the present invention, wherein after testing the compound for the preventive as well as for therapeutic values in intact conscious mice, mice were sacrificed for collecting the blood and bronchoalveolar lavage (bat) fluid to measure the levels of IgE, cytokines 11-4, IL-5 and IFN-y and homophile. Ovalbumin specific IgE levels m the sera and the levels of IL-4, IL-5 and IFN-y in the BAL fluid were measured by Elisa kits. The prevalence of eosinophils was determined in BAL fluid by flow cytometry.
(§2) BALB/c male mice, eight-ten weeks old, weighing 18-22 grams were acclimatized for one week under the laboratory conditions. Mice were sensitized by injecting intraperitoneally 0.2 ml of saline containing 10 micrograms ovalbumin (ova) (sigma, USA) adsorbed on 2 mg aluminum hydroxide gel on days 0, 7 and 14 followed by aerosol inhalation for 5 consecutive days, from day 19 to 23 with 2% ova (in saline w/v) for 30 minutes daily. Aerosol challenge was performed by placing mice in Plexiglas chamber (20×20×10 cm^3) and ova or saline alone was aerosolized using a nebulizer (devilbiss, model 645, USA) at an airflow rate of 7 litre/minute, sham-sensitized mice received 0.2 ml of saline containing only 2 mg al(oh)3 on days, 0, 7 and 14 followed by inhalation of aerosol of saline without ova for 5 consecutive days.
(§3) The compound PBPB (sigma, USA) was dissolved in absolute alcohol (10 mg/ml). PBPB (20ul by volume) was given orally to each mouse. […] Initial measurements of specific airway conductance and airway reactivity of all the animals were carried out before starting the experiment ovalbumin induced airway constriction and airway reactivity were measured after sensitization protocol was over the measurements were done as described below (example 3,4 and 5). […]
The levels of eosinophils in BAL fluid were detected by flowcytometry (facsvantage, Becton Dickinson, USA) using the method described by bedner et al (1999). The cells were gated on the basis of the size and fluorescence (FSC versus FL 1) and the percentage of the gated cells was determined by cell quest software. […]
A general note: A flow cytometer gives signals particle by particle.

The test system of assay [1] is mouse model of asthma (ova sensitized mice). Kind of assay: Ova-induced airway constriction (fall of SGaw) in sensitized mice, dual-chamber whole body plethysmography. The procedure: as §2
(§4) The compound PBPB (sigma, USA) was dissolved in absolute alcohol (10 mg/ml). PBPB (20ul by volume) was given orally to each mouse. To evaluate the effect of PBPB on sensitization and the development of impaired airway sensitivity (preventive effect, FIG. 1a), five groups (six mice in each) of mice were used. One group was sham-sensitized control and another group was kept as sensitized control. The remaining three groups were given orally three different concentrations of PBPB (0.1, and 10 mg/kg body weight) daily starting from first to the last day of the sensitization the sham-sensitized and sensitized control mice were given only vehicle (20 ul alcohol) in a similar fashion. Initial measurements of specific airway conductance and airway reactivity of all the animals were carried out before starting the experiment ovalbumin induced airway constriction and airway reactivity were measured after sensitization protocol was over the measurements were done as described below (example 3,4 and 5).
(§5) To examine the therapeutic effect of PBPB on sensitized mice (therapeutic effect, FIG. ib), mice were sensitized as before without PBPB treatment and airway constriction to ova and airway reactivity to methacholine were measured as described below animals showing at least 40% fall in specific airway conductance to ova aerosol challenge were selected for this study the sensitized mice were randomly divided into 4 groups of 6 mice in each group three groups of mice were given daily three different concentrations of PBPB in 20 ul of alcohol adjusted to contain PBPB in a dose of 0.1, and 10 mg/kg body weight respectively for week fourth group was fed only 20 ul alcohol for one week to be used as sensitized control airway constriction and airway reactivity were again measured thereafter.
Airway calibre was measured in the term of specific airway conductance (SGaw). SGaw is a measure of the airway caliber and was estimated using a dual-chamber whole body plethysmograph (Agrawal, 1981). The dual-chamber whole body plethysmograph was designed in our laboratory to suit the size of mouse (FIG. 2). The change in the box pressure in response to breathing of the housed mouse was determined with a transducer (validyne mp 45+2 cmh20) and carrier amplifier (validyne model CD 15 carrier demodulator) that were connected to the x-channel of an oscilloscope Tektronix, model 6116, USA). […]
Animals were acclimatized in the body box in the beginning of the study and at the time of recording the loop, each individual mouse was housed for 10 minutes to set the basal loop correctly. Values of the slopes were recorded on getting at least three similar loops. […]

Another assay has as its system IFN-gamma, IL-4 and IL-5. Put plainly: Cytokines IFN-gamma, IL-4 and IL-5 in BAL fluid by Elisa kits. The note with it: for IL-4 in BAL fluid / IL-5 in BAL fluid / IFN-γ in BAL fluid: mean SEM, n = 4; for IL-4 in BAL fluid: sensitized 143.0 ± 3.0; for IL-5 in BAL fluid: sensitized 158.7 ± 22.5; for IFN-γ in BAL fluid: sensitized 162.0 ± 45.2; for IFN-γ:IL-4 ratio in BAL fluid: sensitized 1.1. As for the experimental part:
as §1, §2, §4, §5
The cytokines IFN-gamma, IL-4 and IL-5 were measured in the BAL fluid by enzyme-linked ImmunoSorbent assay (Elisa) kits (BD pharmingen, USA) as per the manufacturer's protocol.

In assay [2] the test system is mouse model of asthma (ova sensitized mice). Put plainly: Airway reactivity to methacholine (MCh PD35) in sensitized mice. As for the experimental part:
as §2
as §4, with “The remaining three groups were given orally three different concentrations of PBPB (0.1, and 10 mg/kg body weight) daily starting from first to the last day of the sensitization the sham-sensitized and sensitized control mice were given only vehicle (20 ul alcohol) in a similar fashion.” left out
as §5
Airway calibre was measured in the term of specific airway conductance (SGaw). […] The change in the box pressure in response to breathing of the housed mouse was determined with a transducer (validyne mp 45+2 cmh20) and carrier amplifier (validyne model CD 15 carrier demodulator) that were connected to the x-channel of an oscilloscope Tektronix, model 6116, USA). […]

For another assay, the system named is Ova-specific IgE. Kind of assay: Serum ova-specific IgE levels by Elisa. The procedure: as §1, §2, §3
Serum IgE levels were measured in all the groups of mice by Elisa (FIG. 7). Ova-specific IgE levels were measured by enzyme linked immuno sorbent assay (Elisa). […]

The mark [3] stands for this setting: PBPB 1 mg/kg body weight after sensitization.
Where [4] appears, read: PBPB 1 mg/kg body weight during sensitization.

Regarding `O=C(CBr)c1ccc(Br)cc1` [PBPB, parabromophenacyl bromide], the effective dose with eosinophils in BAL fluid (administration to mice during and after sensitization, inhibition of inflammation (eosinophils in BAL fluid)) came to 1 mg/kg body weight. The “levels of eosinophils in BAL fluid” value in the assay with eosinophils in BAL fluid (preventive: oral 1 mg/kg body weight during sensitization) is reported as “prevented the rise in the eosinophils levels”. For the same compound, the “levels of eosinophils in BAL fluid” value in the assay on eosinophils in BAL fluid (therapeutic: 1 mg/kg body weight in already sensitized mice, p<0.01 vs vehicle treated sensitized mice) is “reduced the levels of eosinophils significantly”. For the same compound, the “fall of SGaw level from basal level after ova challenge” value in assay [1] (preventive: oral 0.1 mg PBPB/kg body weight during sensitization, sensitized control fall 48%) is given as 17%. For the same compound, the “fall of SGaw after ova challenge, effect of further dose increase” value in assay [1] (preventive: oral 'lo mg/kg body weight' during sensitization) is given as “did not show any additional effect”. In assay [1] (preventive: oral 'mg PBPB/kg body weight' (dose figure missing) during sensitization, sensitized control fall 48%), the “fall of SGaw from basal levels after ova challenge” value is listed as 4%. Also, the “SGaw levels recovered, of basal SGaw levels” value in assay [1] (therapeutic: oral for one week to already sensitized mice, 10 mg PBPB/kg body weight) is reported as 96%. In assay [1] (therapeutic: oral for one week to already sensitized mice, dose 'mg/kg body weight' (figure missing)), the “SGaw levels recovered, of normal basal levels” value is reported as 86%. For the same compound, in the assay on IFN-gamma, IL-4 and IL-5 (setting [3]), the “IL-4 in BAL fluid” value was found to be 42.4 ± 4.9 pg/mL, the “IL-5 in BAL fluid” value was determined as 53.4 ± 2.2 pg/mL, the “IFN-γ in BAL fluid” value was 425.1 ± 54.0 pg/mL and the “IFN-γ:IL-4 ratio in BAL fluid” value stood at 10. Moreover, in the assay with IFN-gamma, IL-4 and IL-5 (setting [4]), the “IL-4 in BAL fluid” value was 91.0 ± 13.2 pg/mL, the “IL-5 in BAL fluid” value is 75.1 ± 7.4 pg/mL, the “IFN-γ in BAL fluid” value came to 402 ± 14.4 pg/mL and the “IFN-γ:IL-4 ratio in BAL fluid” value is recorded as 4.4. For the same compound, the “MCh PD35, of its initial values” in assay [2] (preventive: treatment during sensitization, 10 mg/kg body weight) is listed as 115%. Besides, in assay [2] (preventive: treatment during sensitization, dose 'mg/kg body weight' (figure missing), 24 hours after last ova challenge), the “MCh PD35 recovery, of its initial levels” value is reported as 93%. Further, in assay [2] (therapeutic: oral to sensitized mice already having airway hyper reactivity, 1 mg/kg body weight), the “MCh PD35 recovered, of the basal value” is given as “over 81%”. The “MCh PD35 recovery, of the basal value” in assay [2] (therapeutic: oral to sensitized mice already having airway hyper reactivity, 10 mg/kg body weight) amounted to 94%. Besides, the “serum IgE levels, effect of higher dose” value in the assay with Ova-specific IgE (preventive: 10 mg of PBPB/kg body weight during sensitization) is on record as “did not show additional effect”. Moreover, the “mean serum IgE level lower compared to sensitized animals” value in the assay with Ova-specific IgE (preventive: oral 1 mg/kg body weight during sensitization, sensitized mice 384±22.8 ng/ml) is listed as 40%. Besides, the “fall in serum IgE levels compared to vehicle treated sensitized mice” value in the assay on Ova-specific IgE (therapeutic: 1 mg/kg body weight fed for one week to already sensitized mice, p<0.05) came out at 47%.
